Assay results: patent publication US11571413B2, “Nicotinamide riboside treatments of domesticated meat animals” (Kansas State University Research Foundation, priority 2017, dated 2023)

Experiments:
growing pigs = test: Longissimus lumborum chop retail color stability, 6-day display (Example III); format: in vivo, pig; conditions: for Greater discoloration score of 0 mg/kg chops than NR chops: day 6 of display
Description: Nine growing pigs were blocked by bodyweight (BW) and placed in metabolism crates. After a 3-day acclimation period, pigs within each BW block were randomly assigned to a treatment (n=3 pigs/treatment). Treatments comprised pigs supplemented 0, 15, or 30 mg/kg BW NR for 7 days. Pigs were allowed ad libitum access to a standard growing diet and water. Treatments were administered daily at 8 a.m. by mixing NR in 20 mL of Karo® dark syrup and orally drenching the pigs. On day 0 and 3 of the trial, muscle biopsies of the LL were taken for NAD+ analysis using standard procedures. At day 7, pigs were transported to the Kansas State University Meats Laboratory and euthanized by a captive penetrating bolt to the brain, followed by exsanguination. Following harvest procedures, 3 g of the LL were collected for NAD+ analysis. Twenty-four hours after harvest, the whole LL not sampled at harvest was removed from the carcass and aged 10 days. After aging, the LL was cut into 6 chops for retail color stability analysis, including 6-day surface oxy- and metmyoglobin percentage, 6-day objective and subjective color panel evaluation, and day 4 and 6 metmyoglobin reducing ability (MRA).

finishing barrows = test: Finishing pig growth performance (Example IV); format: in vivo
Description: Seven days prior to the beginning of the experiment, 10 finishing barrows (initial BW 111.9±1.6 kg) were assigned to individual pens located at the East Finisher facility of the Kansas State University Swine Teaching and Research Center (Manhattan, Kans.). Each pen was 7.4 m^2 with a slatted floor, contained a nipple waterer and an individual dry feeder that allowed ad libitum access to food and water. Barrows were randomly assigned to 1 of 2 NR treatments, 0 or 30 mg/kg daily of NR mixed in Karo® syrup and administered by oral gavage. Barrows were administered their assigned treatment for 10 days, after which they were harvested under USDA inspection. Twenty-four hours after harvest, carcass measurements were taken by trained personnel, carcasses were fabricated into the 5 major wholesale cuts, and whole-boneless loins were vacuum packaged and aged for 10 days. Loin were cut into 3 chops with chop 1 being used for day-0 metmyoglobin reducing ability (MRA) analysis, chop 2 being used for day-4 MRA and oxygen consumption rate (OCR) analyses, and chop 3 for 8-day objective/subjective color evaluation and MRA and OCR analyses.

[1] = test system: Fertilized broiler eggs (Cobb 500); test: Pectoralis major muscle fiber CSA and density by immunohistochemistry (Example VI); format: in vivo, chicken; conditions: hatched chicks
Description: The methods of Noel et al. (2016) were followed for immunohistochemistry with modifications. The PM was removed from the tongue depressor, embedded in tissue embedding media (Fisher Scientific), cooled with isopentane chilled liquid nitrogen, and stored at −80° C. until cryosectioning. Ten micrometer-thick cryosections were cut using a Microm 550 cryostat (Thermo Fisher Scientific, Kalamazoo, Mich.) and six cryosection were collected on positively charged slides (Diamond White Glass; Globe Scientific Inc., Paramus, N.J.). Cryosections were incubated in a blocking solution containing 5% horse serum and 0.2% TritonX-100 in Phosphate Buffered Saline (PBS) for 30 min. Slides were incubated for 1 h at room temperature in a primary antibody solution consisting of blocking solution and 1:500 rabbit, α-dystrophin (Thermo Fisher Scientific). Cryosections were washed 3 times for 5 min each in PBS and incubated for an additional 30 min with blocking solution containing 1:1,000 Alexa-Flour 594 goat-anti-rabbit heavy and light chains (Life Technologies, Carlsbad, Calif.). Cryosections were washed again as stated above, 5 μl of 9:1 glycerol in PBS was placed on each section, and slides were coverslipped for imaging. Cryosections were visualized at 200× magnification using a Nikon Elipse TI-U inverted microscope (Nikon Instruments Inc., Melville, N.Y.), a Nikon DS-QiMC digital camera (Nikon Instruments Inc.) was used to photograph cryosections, and an average of 1,000 fibers were analyzed using NIS-Elements imaging software (Basic Research, 3.3; Nikon Instruments Inc.) to determine fiber cross-section area (CSA).

[2] = test system: Fertilized Cobb 500 broiler eggs; test: Pectoralis major muscle fiber morphometrics and satellite cell content (second Example VI); format: in vivo, chicken
Description: The methods of Gonzalez and Jackson (2020) were followed for immunohistochemistry analysis. On 2 separate slides, 6 cryosections (10 μm thick) were collected on positively charged slides (Diamond White Glass; Globe Scientific Inc., Paramus, N.J.). Cryosections were incubated in 5% horse serum and 0.2% TritonX-100 in phosphate buffered saline (PBS) for 30 min to block all nonspecific binding sites. Cryosections were incubated for 16 h at 4° C. with a primary antibody solution comprising blocking solution and 1:500 rabbit α-dystrophin (Thermo Scientific, Waltham, Mass.) and 1:2 […] α-Pax7 antibody (Developmental Studies Hybridoma Bank, Iowa City, Iowa). Cryosections were washed 3 times for 5 min with PBS and incubated for 30 min with 1:1,000 Alexa-Flour 594 goat-anti-rabbit H&L (Life Technologies, Carlsbad, Calif.), 1:1000 Alexa-Flour 488 chicken-anti-mouse IgG1 (Life Technologies), and 1:1,000 Hoescht Dye 33342 (Life technologies) secondary antibodies in blocking solution. After washing in PBS 3 times for 5 min, 5 μL of 9:1 glycerol in PBS was placed on each cryosection and slides were coverslipped for imaging. All cryosections were imaged at 200× magnification using a Nikon Eclipse TI-U inverted microscope (Nikon Instruments Inc., Melville, N.Y.). Immunohistochemistry photomicrographs were collected with a DS-QiMC digital camera (Nikon Instruments Inc.) and SDH cryosections were collected with a Nikon DS-Fil color digital camera (Nikon Instruments Inc.) White light intensity was kept constant for SDH photomicrographs. All photomicrograph collection and image analyses were conducted using NIS Elements Basic Software (Nikon Instruments Inc.). Cross-sectional area (CSA) of a minimum of 1,000 muscle fibers per chick was determined as the area within the dystrophin border. The number of satellite cell was determined as nuclei co-staining for Pax 7 and Hoechst dye located at the periphery of muscle fiber. A minimum of 50 muscle fiber bundles per chick were analyzed for SDH mean intensity using the same software. The scale for mean intensity ranged from 0 (black or the most intense staining) to 250 (white or the least intense staining).

[3] = d 0 to 17, NR 30 mg/kg daily d 7 to 17
[4] = 250, 500 mM or 1 M NR, hatched chicks
[5] = 250 and 500 mM NR, hatched chicks

`NC(=O)c1ccc[n+]([C@@H]2O[C@H](CO)[C@@H](O)[C@H]2O)c1` [Nicotinamide riboside, nicotinamide riboside] was tested, and the “Visual panel discoloration scores between treatments” value (growing pigs; 0, 15 and 30 mg/kg, days 1, 4 and 5 of display) was “did not differ”, the “Less surface metmyoglobin accumulation than 0 mg/kg chops (tendency)” value (growing pigs; 15 mg/kg BW, 7 days, LL chops, entire 6-day display) was 9% and the “Greater discoloration score of 0 mg/kg chops than NR chops” value (growing pigs; 15 mg/kg) was 41%. For the same compound, the “Less discoloration than 0 mg/kg chops (tendency)” value (growing pigs; 15 mg/kg, entire 6-day study) was 27%, the “More MRA than 0 mg/kg chops (tendency)” value (growing pigs; 15 mg/kg, over the entire study) was 42% and the “Less surface metmyoglobin than 0 mg/kg chops” value (growing pigs; 30 mg/kg BW, 7 days, LL chops, entire 6-day display) was 14%. The “Greater discoloration score of 0 mg/kg chops than NR chops” value (growing pigs; 30 mg/kg) was 39%, the “Less surface discoloration than 0 mg/kg chops” value (growing pigs; 30 mg/kg, entire 6-day study) was 30% and the “More metmyoglobin reducing ability (MRA) than 0 mg/kg chops” value (growing pigs; 30 mg/kg, over the entire study) was 64%. The “Surface discoloration of 0 mg/kg chops vs 15 and 30 mg/kg chops” value (growing pigs; days 2 and 3 of display) was “tended to have more surface discoloration”, the “Increase of average daily gain (numerical)” value (finishing barrows; 30 mg/kg daily oral gavage over 10 days) was 8% and the Body weight (finishing barrows; d 0 (NR 30 mg/kg given d 7 to 17; before treatment)) was 112.0 kg. For the same compound, the Average daily gain (finishing barrows; d 0 to 7 (before NR treatment)) was 0.7 kg, the “Average daily feed intake” value (finishing barrows; [3]) was 3.8 kg and the Average daily gain (finishing barrows; [3]) was 1.1 kg. The “Feed to gain ratio” value (finishing barrows; [3]) was 3.42, the Body weight (finishing barrows; d 7 (start of NR 30 mg/kg, d 7 to 17)) was 117.0 kg and the Average daily gain (finishing barrows; d 7 to 17, NR 30 mg/kg daily) was 1.43 kg. The Body weight (finishing barrows; d 17, NR 30 mg/kg daily d 7 to 17) was 131.3 kg, the “PM fiber CSA” value ([1]; 250 mM NR in ovo at d 10) was “did not affect” and the “Muscle fiber density vs saline in the albumen” value ([1]; 250 mM NR into albumen) was “not differ”. For the same compound, the “Increase of PM fiber density” value ([1]; 250 mM NR into the yolk sac) was 45%, the “Muscle fiber density vs saline in the yolk” value ([1]; 250 mM NR into yolk) was “more” and the “Increase of satellite cell density compared to control” value ([2]; 250 mM NR, at hatching) was 73%. For the same compound, the “Satellite cell density vs control chicks” value ([2]; 250 mM NR, hatched chicks) was “greater”, the “Average increase of satellite cell density compared to control” value ([2]; 500 mM and 1 M NR, at hatching) was 116% and the “Satellite cell density vs 0 and 250 mM treatments” value ([2]; 500 mM or 1 M NR, hatched chicks) was “greater satellite cell density”. The “Increase of muscle fiber density compared to control chicks” value ([2]; 1 M NR, hatched chicks) was 75%, the “Muscle fiber density vs all other treatments” value ([2]; 1 M NR, hatched chicks) was “greater muscle fiber density” and the “Muscle fiber CSA” value [2, 4] was “no treatment effect”. For the same compound, the “Number of satellite cells per muscle fiber” value [2, 4] was “no treatment effect”, the “Increase of muscle fiber density compared to control chicks (average)” value [2, 5] was 34% and the “Muscle fiber density vs control chicks” value [2, 5] was “greater muscle fiber density”.
